Laboratory results published in article PMC10709440, “High-throughput ligand profile characterization in novel cell lines expressing seven heterologous insect olfactory receptors for the detection of volatile plant biomarkers” (Scientific Reports, 2023).
Read-outs that look alike come from different tables or passages of the source.

How the values were obtained:
Drosophila OR10a = molecular target: T1, Drosophila OR10a (Drosophila melanogaster, UniProt Q9VYZ1); assay: Calcium ion fluorescence (GCaMP6) assay, OR10a stable HEK293 cell line; format: cell-based
T1 construct: expressed in transfected cells
T1 sequence (Q9VYZ1 1-406): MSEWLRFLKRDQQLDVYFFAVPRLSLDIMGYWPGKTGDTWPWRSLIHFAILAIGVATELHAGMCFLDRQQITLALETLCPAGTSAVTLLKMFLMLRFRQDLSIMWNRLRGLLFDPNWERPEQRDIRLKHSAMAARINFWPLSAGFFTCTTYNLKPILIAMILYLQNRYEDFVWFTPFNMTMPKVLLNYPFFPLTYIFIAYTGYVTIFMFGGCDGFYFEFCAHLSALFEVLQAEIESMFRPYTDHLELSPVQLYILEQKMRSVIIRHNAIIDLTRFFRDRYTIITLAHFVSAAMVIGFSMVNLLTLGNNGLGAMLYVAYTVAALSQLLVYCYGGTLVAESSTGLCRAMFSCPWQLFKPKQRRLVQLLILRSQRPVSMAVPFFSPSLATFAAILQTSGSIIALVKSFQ
T1 sequence (Q9VNB5 1-486 partner): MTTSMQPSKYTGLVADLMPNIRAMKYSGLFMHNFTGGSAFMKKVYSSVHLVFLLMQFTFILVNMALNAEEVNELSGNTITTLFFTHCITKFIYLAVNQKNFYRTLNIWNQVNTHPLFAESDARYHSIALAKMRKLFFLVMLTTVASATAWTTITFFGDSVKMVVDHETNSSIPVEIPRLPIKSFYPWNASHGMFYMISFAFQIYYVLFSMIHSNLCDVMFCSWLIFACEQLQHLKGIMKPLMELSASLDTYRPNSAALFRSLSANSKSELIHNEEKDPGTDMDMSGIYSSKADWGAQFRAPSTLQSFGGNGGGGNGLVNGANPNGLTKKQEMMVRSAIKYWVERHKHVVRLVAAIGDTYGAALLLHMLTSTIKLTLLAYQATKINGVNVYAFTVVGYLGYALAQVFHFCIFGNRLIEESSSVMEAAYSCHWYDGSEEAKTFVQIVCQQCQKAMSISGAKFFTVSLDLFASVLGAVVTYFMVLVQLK
Experimental: (§1) These VUAA1 normalized ∆F values were used to compare the different receptors and ligands.
(§2) The concentration-dependent effect of the reference ligands on their cognate cell lines was examined in more detail. Twelve different ligand concentrations were measured on each cell line in an overall 0.01 μM to 100 μM concentration range with 5 repetitions with three technical replicates each time.
(§3) Twelve thousand to 18,000 cells were plated into each well of a black wall, transparent bottom 384-well microplate (Greiner) 48 h or 72 h before the measurements and were simultaneously treated with 1 μg/mL doxycycline. […] The plate has 24 columns, thus we could record responses in up to eight different cell lines in each plate. On the day of the experiment, the growth medium was replaced with 20 µL assay buffer/well (140 mM NaCl, 5 mM KCl, 2 mM CaCl2, 1 mM MgCl2, 5 mM HEPES-Na, 20 mM glucose, pH 7.3, 340 mOsm). […] Baseline fluorescence (F0) was recorded for 5 s, after which 7 µL VOC buffer (140 mM NaCl, 5 mM KCl, 2 mM CaCl2, 1 mM MgCl2, 5 mM HEPES-Na, 31 mM glucose, 0.1% DMSO, pH 7.3, 340 mOsm) was injected into each well in one row and the fluorescence response was recorded for an additional 30 s, at a rate of one read/sec. VOC solutions (VOC buffer with 4× concentration of the final measured VOC concentration, 9 µL/well was injected) were measured on the same wells in a second round with the same protocol. Each individual concentration of a specific VOC sample was recorded in three wells for the same cell line on the same microplate. The raw data were exported in xls file format, F0 and FMAX values, and the fluorescence intensity changes (∆F) were calculated in Excel (Microsoft) (Supplementary file Data summary.xlsx) using the following equation: ΔF=FMAX-F0/F0 (see also Fig. 1C). On each plate, we recorded the response of each cell line to 50 µM VUAA1. The average of these ∆F values of each cell line were used to calculate the VUAA1-normalized values for the rest of the plate, by dividing VOC response ∆F values by the average VUAA1 response ∆F value of the corresponding OR cell line. Each VOC-OR combination was measured three times as technical replicates. […] The average of these replicates were used as one ∆F and VUAA1-normalized ∆F in the following analysis.
(§4) In the next rows we tested the reference VOCs (or other VOCs known to activate the corresponding cell lines), in order to test if all cell lines are responsive. The remaining rows were used to test VOCs with unknown effect.
(§5) The recorded FMAX, F0, ∆F, VUAA1-normalized ∆F values, as well as the OR name, the name of the tested sample, and the final concentration for each well were copied into supplementary file Data summary.xlsx, that was used to summarize all the plates recorded. Here, the averages of the measurements were calculated for each receptor-VOC-concentration combination.

Drosophila OR49b = molecular target: T2, Drosophila OR49b (Drosophila melanogaster, UniProt Q9V6H2); assay: cell-based; settings: for activation at 1 µM / activation at 10 µM / activation at 100 µM: HEK293; for Average response: mean of biological replicates
T2 construct: expressed in transfected cells
T2 sequence (Q9V6H2 1-375): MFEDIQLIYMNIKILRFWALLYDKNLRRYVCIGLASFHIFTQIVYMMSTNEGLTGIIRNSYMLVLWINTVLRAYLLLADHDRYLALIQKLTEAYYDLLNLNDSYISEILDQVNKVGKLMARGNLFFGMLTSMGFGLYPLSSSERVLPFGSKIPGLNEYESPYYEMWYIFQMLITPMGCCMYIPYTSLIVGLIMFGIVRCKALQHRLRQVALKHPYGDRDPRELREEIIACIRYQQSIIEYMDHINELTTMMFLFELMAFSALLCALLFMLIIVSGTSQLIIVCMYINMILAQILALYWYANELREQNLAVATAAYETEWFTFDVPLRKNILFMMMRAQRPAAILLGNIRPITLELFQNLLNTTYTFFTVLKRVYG
T2 sequence (Q9VNB5 1-486 partner): T1 sequence (Q9VNB5 1-486 partner)
Experimental: as §1, §2, §3, §4, §5

[1] = HEK293, 1 μM VOC, 50 μM VUAA1 = 1, responses not exceeding 0.05 considered 0, read-out: OR10a Average response (VUAA1-normalized)
[2] = HEK293, 10 μM VOC, 50 μM VUAA1 = 1, responses not exceeding 0.05 considered 0, read-out: OR10a Average response (VUAA1-normalized)
[3] = HEK293, 100 μM VOC, 50 μM VUAA1 = 1, responses not exceeding 0.05 considered 0, read-out: OR10a Average response (VUAA1-normalized)
[4] = HEK293, read-out: OR10a response (VUAA1-normalized response), VOC concentration 1 μM
[5] = HEK293, read-out: OR10a response (VUAA1-normalized response), VOC concentration 10 μM
[6] = HEK293, read-out: OR10a response (VUAA1-normalized response), VOC concentration 100 μM
[7] = 1 μM VOC, 50 μM VUAA1 = 1, read-out: OR49b Average response (VUAA1-normalized)
[8] = 10 μM VOC, 50 μM VUAA1 = 1, read-out: OR49b Average response (VUAA1-normalized)
[9] = 100 μM VOC, 50 μM VUAA1 = 1, read-out: OR49b Average response (VUAA1-normalized)
[10] = VOC concentration 1 μM, read-out: OR49b response (VUAA1-normalized response)
[11] = VOC concentration 10 μM, read-out: OR49b response (VUAA1-normalized response)
[12] = VOC concentration 100 μM, read-out: OR49b response (VUAA1-normalized response)
[13] = OR49b cell line, odorant cc. 1 µM
[14] = OR49b cell line, odorant cc. 10 µM
[15] = OR49b cell line, odorant cc. 100 µM
[16] = ligand concentration 1 (unit not given), threshold 0.05, below shown as 0
[17] = ligand concentration 10 (unit not given), threshold 0.05, below shown as 0
[18] = ligand concentration 100 (unit not given), threshold 0.05, below shown as 0

SMILES	activation at 1 µM (Drosophila OR10a; [1])	activation at 10 µM (Drosophila OR10a; [2])	activation at 100 µM (Drosophila OR10a; [3])	activation at 1 µM (Drosophila OR10a; [4])	activation at 10 µM (Drosophila OR10a; [5])	activation at 100 µM (Drosophila OR10a; [6])	activation at 1 µM (Drosophila OR49b; [7])	activation at 10 µM (Drosophila OR49b; [8])	activation at 100 µM (Drosophila OR49b; [9])	activation at 1 µM (Drosophila OR49b; [10])	activation at 10 µM (Drosophila OR49b; [11])	activation at 100 µM (Drosophila OR49b; [12])	Average response (Drosophila OR49b; [13])	Average response (Drosophila OR49b; [14])	Average response (Drosophila OR49b; [15])	further results
Cc1ccc(O)cc1 [4-methylphenol]	2.37%	1.81%	6.62%	0%	0%	6.62%	3%	11%	44%	0%	11%	44%	0.0329	0.11	0.44	–
Cc1cccc(C)c1 [m-xylene]	–	–	–	–	–	–	0%	3%	27%	–	–	–	0.00	0.0251	0.27	activation at 1 µM (Drosophila OR10a; HEK293, read-out: OR10a Average response (VUAA1-normalized), 1 μM VOC, 50 μM VUAA1 = 1, responses not exceeding 0.05 considered 0): 0%; activation at 10 µM (Drosophila OR10a; HEK293, read-out: OR10a Average response (VUAA1-normalized), 10 μM VOC, 50 μM VUAA1 = 1, responses not exceeding 0.05 considered 0): 0%; activation at 100 µM (Drosophila OR10a; HEK293, read-out: OR10a Average response (VUAA1-normalized), 100 μM VOC, 50 μM VUAA1 = 1, responses not exceeding 0.05 considered 0): 2%; OR10a response (VUAA1-normalized) at 1 μM (Drosophila OR10a; OR10a cell line, VOC concentration 1 μM): 0.00; OR10a response (VUAA1-normalized) at 10 μM (Drosophila OR10a; OR10a cell line, VOC concentration 10 μM): 0.00; OR10a response (VUAA1-normalized) at 100 μM (Drosophila OR10a; OR10a cell line, VOC concentration 100 μM): 0.00; DF norm AVERAGE OR10a (Drosophila OR10a; [16]): 0; DF norm AVERAGE OR10a (Drosophila OR10a; [17]): 0; DF norm AVERAGE OR10a (Drosophila OR10a; [18]): 0; OR49b response (VUAA1-normalized) at 1 μM (Drosophila OR49b; OR49b cell line, VOC concentration 1 μM): 0.00; OR49b response (VUAA1-normalized) at 10 μM (Drosophila OR49b; OR49b cell line, VOC concentration 10 μM): 0.00; OR49b response (VUAA1-normalized) at 100 μM (Drosophila OR49b; OR49b cell line, VOC concentration 100 μM): 0.27; DF norm AVERAGE OR49b (Drosophila OR49b; [16]): 0; DF norm AVERAGE OR49b (Drosophila OR49b; [17]): 0; DF norm AVERAGE OR49b (Drosophila OR49b; [18]): 0.2713
CCCCCO [1-pentanol]	0%	0%	0%	0%	0%	0%	–	–	–	0%	0%	0%	0.00	0.00	0.0167	DF norm AVERAGE OR10a (Drosophila OR10a): 0; DF norm AVERAGE OR49b (Drosophila OR49b): 0
